The subject of one experiment is Bifidobacteria. Put plainly: Faecal fermentation in dialysis tubes, FISH with Bifl 64 probe. The experiment is classed as cell-based. Conditions: t = 72 h versus t = 0. How it is done: (§1) Pooled fresh faeces obtained from 4-5 healthy adults was used to perform fermentation studies as described in Appendix I of WO 2004/000340. The experiments were performed in duplo. The faeces, diluted 1:5 into McBain and Farlane medium, was put into dialysis tubes and suspended in bottles with buffer under anaerobic conditions and was first incubated at 37° C. for 16 h for reasons of adaptation before inoculating them with the substrates according to the table below at t=0.
(§2) The test substrates were added once a day (at t=0, 24, and 48 hours). Buffer was refreshed once a day. A sample was taken at t=0 and t=72. This relatively long period was used since shifts in bacterial populations are relatively slow compared to the shifts in short chain acids formed.
(§3) The sphingosine was dissolved in ethanol (stock 10 mg/ml). 30 μl of a stock of 10 mg/ml was added to the dialysis tube.
(§4) The samples were analysed by Fluorescence In Situ Hybridisation (FISH) as described in Franks, A. H., et al., Appl. Environ. Microbiol., 1998. 64(9): p. […] Total number of bacteria was determined by DAPI staining. The ratio Firmicutes/Bacteroidetes was set at the percentage of bacteria detected by the Chis150, Clit135, Erec482 and Lab158 probe, divided by the percentage of bacteria […] by the Bac303 probe. The bacteria detected by the Erec482 group are usually the largest group of Firmicutes in the human intestine.

Experiment [1] concerns Eubacterium rectale and Clostridium coccoides group. In words: Faecal fermentation in dialysis tubes, FISH with Erec482 probe. The experiment is classed as cell-based. To be noted: t = 72 h versus t = 0. How it is done:
as §1, §2, §3, §4

As to `CCCCCCCCCCCCC/C=C/[C@@H](O)[C@@H](N)CO` [Number 1, D-sphingosine], in the experiment with Bifidobacteria, the “change in bifidobacteria (in words)” value is listed as “increase”. Moreover, the “change in Clostridia and Eubacteria, largest group of intestinal Firmicutes (in words)” value in experiment [1] is given as “decrease”.

The values above are taken from patent US20110034407A1, “USE OF SPHINGOMYELIN AND NON-DIGESTIBLE CARBOHYDRATES FOR IMPROVING INTESTINAL MICROBIOTA” (N. V. Nutricia, priority 2007, published 2011).
